Laboratory results as given in patent US20220274965A1, “ANTIVIRAL AGENTS AND USES THEREOF” (GRIFFITH UNIVERSITY, priority 2019, published 2022).

What was measured:
hPIV-3 strain JS [1] = assay: Haemagglutination inhibition (HI) assay with human red blood cells; format: biochemical; details: hPIV3 JS
hPIV-1 strain C35 [2] = assay: as above; format: biochemical; details: hPIV1 C35
hPIV-3 strain C243 [3] = assay: In situ ELISA virus growth inhibition in LLC-MK2 cells; format: cell-based; details: Human respirovirus 3, LLC-MK2; hPIV3 C243; Table 2
hPIV-3 strain JS [4] = assay: as above; format: cell-based; details: Human respirovirus 3, LLC-MK2; hPIV3 JS
[5] = system: hPIV-3 strain CI002 (clinical isolate); assay: Haemagglutination inhibition (HI) assay with human red blood cells; format: biochemical; details: hPIV3 CI002
hPIV-3 strain C243 [6] = assay: as above; format: biochemical; details: hPIV3 C243
[7] = target: hPIV-3 strain C243 neuraminidase (UniProt P08492, species not given/STRAIN_C243); format: biochemical; details: hPIV3 C243; Table 2; read-out: NI IC50
[8] = system: hPIV-3 strain CI002 (clinical isolate); assay: In situ ELISA virus growth inhibition in LLC-MK2 cells; format: cell-based; details: Human respirovirus 3, LLC-MK2; hPIV3 CI002
hPIV-1 strain C35 [9] = assay: In situ ELISA virus growth inhibition; format: cell-based; details: hPIV1 C35
[10] = target: hPIV-3 strain CI002 (clinical isolate) neuraminidase (UniProt P08492, species not given/STRAIN_CI002); format: biochemical; details: hPIV3 CI002; read-out: NI IC50
Sequence of hPIV-3 strain CI002 (clinical isolate) neuraminidase (P08492 whole entry, change not shown): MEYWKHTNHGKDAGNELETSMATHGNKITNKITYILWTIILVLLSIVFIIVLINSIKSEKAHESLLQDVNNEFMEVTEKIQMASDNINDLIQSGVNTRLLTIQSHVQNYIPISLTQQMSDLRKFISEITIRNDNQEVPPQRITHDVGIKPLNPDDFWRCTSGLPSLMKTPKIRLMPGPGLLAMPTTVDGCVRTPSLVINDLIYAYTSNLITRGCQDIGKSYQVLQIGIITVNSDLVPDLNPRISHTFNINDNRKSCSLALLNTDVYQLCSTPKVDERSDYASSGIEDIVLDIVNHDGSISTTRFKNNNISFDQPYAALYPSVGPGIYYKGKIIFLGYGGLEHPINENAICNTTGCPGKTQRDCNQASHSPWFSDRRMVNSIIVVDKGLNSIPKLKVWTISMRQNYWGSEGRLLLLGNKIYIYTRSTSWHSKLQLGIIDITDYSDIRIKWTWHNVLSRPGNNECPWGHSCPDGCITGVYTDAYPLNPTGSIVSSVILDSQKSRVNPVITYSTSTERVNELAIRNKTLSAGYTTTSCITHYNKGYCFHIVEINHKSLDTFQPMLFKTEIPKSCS

Sequence of hPIV-3 strain C243 neuraminidase (P08492 whole entry, change not shown): as above

Structure (SMILES)	IC50 (hPIV-3 strain JS [1])	IC50 (hPIV-1 strain C35 [2])	IC50 (hPIV-3 strain C243 [3])	IC50 (hPIV-3 strain JS [4])	IC50 [5]	IC50 (hPIV-3 strain C243 [6])	IC50 [7]	IC50 [8]	IC50 (hPIV-1 strain C35 [9])	IC50 [10]
CC(=O)Nc1ccccc1-c1cn([C@H]2C=C(C(=O)O)O[C@@H]([C@H](O)[C@H](O)CO)[C@@H]2NC(C)=O)nn1	40 µM	> 200 µM	126 µM	406 µM	> 200 µM					
CC(=O)N[C@H]1[C@H]([C@H](O)[C@H](O)CO)OC(C(=O)O)=C[C@@H]1n1cc(-c2ccccc2NC(=O)c2cccc(OC(F)(F)F)c2)nn1	> 250 µM		217 µM	> 500 µM	> 200 µM	> 200 µM	47.4 µM			
COc1c(F)c(F)cc(C(=O)Nc2ccccc2-c2cn([C@H]3C=C(C(=O)O)O[C@@H]([C@H](O)[C@H](O)CO)[C@@H]3NC(C)=O)nn2)c1F	> 250 µM	> 200 µM	177 µM	764 µM			32.8 µM			
CC(=O)N[C@H]1[C@H]([C@H](O)[C@H](O)CO)OC(C(=O)O)=C[C@@H]1n1cc(-c2ccccc2NS(=O)(=O)c2ccc([N+](=O)[O-])cc2)nn1	4.48 µM	> 200 µM			13.7 µM	2.56 µM		29.1 µM		
CC(=O)N[C@H]1[C@H]([C@H](O)[C@H](O)CO)OC(C(=O)O)=C[C@@H]1n1cc(-c2ccccc2NC(=O)CNC(=O)c2ccccc2)nn1	20 µM	> 200 µM		340 µM	> 200 µM					
CC(=O)N[C@H]1[C@H]([C@H](O)[C@H](O)CO)OC(C(=O)O)=C[C@@H]1n1cc(-c2ccccc2NC(=O)CNC(=O)c2ccc(N(C)C)cc2)nn1	14 µM	> 200 µM		355 µM	> 200 µM					
CC(=O)N[C@H]1[C@H]([C@H](O)[C@H](O)CO)OC(C(=O)O)=C[C@@H]1n1cc(-c2ccccc2NC(=O)CNC(=O)c2ccc(-c3ccccc3)cc2)nn1	6.4 µM	> 200 µM	23.7 µM	60.7 µM	44.5 µM					
CC(=O)N[C@H]1[C@H]([C@H](O)[C@H](O)CO)OC(C(=O)O)=C[C@@H]1n1cc(-c2ccccc2NC(=O)CNS(=O)(=O)c2cccc([N+](=O)[O-])c2)nn1	15.4 µM	> 200 µM			44.5 µM			99.1 µM		
CC(=O)N[C@H]1[C@H]([C@H](O)[C@H](O)CO)OC(C(=O)O)=C[C@@H]1n1cc(-c2ccccc2NC(=O)CNS(=O)(=O)c2ccc([N+](=O)[O-])cc2)nn1	8 µM	> 200 µM	63.9 µM	240 µM	23.9 µM				> 200 µM	
CC(=O)N[C@H]1[C@H]([C@H](O)[C@H](O)CO)OC(C(=O)O)=C[C@@H]1n1cc(-c2ccccc2NC(=O)CCNC(=O)C2CC2)nn1	> 250 µM		104 µM	602 µM	> 200 µM	> 200 µM	30.2 µM			
O=C(O)C1=C[C@H](n2cc3c(Br)cccc3n2)[C@@H](NC(=O)C(F)(F)F)[C@H]([C@H](O)[C@H](O)CO)O1		4.94 µM			7.41 µM		3.95 µM			8.87 µM
N#Cc1ccc2nn([C@H]3C=C(C(=O)O)O[C@@H]([C@H](O)[C@H](O)CO)[C@@H]3NC(=O)C(F)(F)F)cc2c1	133 µM	66.7 µM			> 200 µM		47.9 µM			143 µM
N#Cc1ccc2cn([C@H]3C=C(C(=O)O)O[C@@H]([C@H](O)[C@H](O)CO)[C@@H]3NC(=O)C(F)(F)F)nc2c1	> 200 µM	> 200 µM			> 200 µM		49.8 µM			208 µM
CC(C)C(=O)N[C@H]1[C@H]([C@H](O)[C@H](O)CO)OC(C(=O)O)=C[C@@H]1n1cc2ccc(C(=O)O)cc2n1	> 200 µM	> 200 µM			> 200 µM		211 µM			378 µM
CC(=O)N[C@H]1[C@H]([C@H](O)[C@H](O)CO)OC(C(=O)O)=C[C@@H]1n1cc(-c2ccccc2NC(=O)CCNS(=O)(=O)c2ccc([N+](=O)[O-])cc2)nn1	38.5 µM	> 200 µM			> 200 µM			287 µM		
CC(=O)N[C@H]1[C@H]([C@H](O)[C@H](O)CO)OC(C(=O)O)=C[C@@H]1n1cc(-c2ccccc2NC(=O)CCNS(=O)(=O)Cc2ccccc2)nn1	> 200 µM	> 200 µM			> 200 µM		21.2 µM			53.9 µM
O=C(O)C1=C[C@H](n2cc3ccc(F)cc3n2)[C@@H](NC(=O)C(F)(F)F)[C@H]([C@H](O)[C@H](O)CO)O1		133 µM			22.2 µM		12.9 µM			103 µM
COc1ccc(OC)c2nn([C@H]3C=C(C(=O)O)O[C@@H]([C@H](O)[C@H](O)CO)[C@@H]3NC(=O)C(F)(F)F)cc12						14.8 µM	11.2 µM			74.2 µM
